# Patent US20180116983A1, “COMPOUNDS FOR TREATING DISORDERS ASSOCIATED WITH BK CHANNEL MODULATION” (Canbex Therapeutics Limited, priority 2015, published 2018)
# Entries after “also recorded” stand apart in the source; their conditions may differ.
# Tests used:
# [1] = system: C57BL/6.Fmr1 knockout mice; test: Marble burying in Fmr1 knockout mice; format: in vivo, mouse; conditions: 2 mg/kg i.v., 30 min
# Protocol: Animals: C57BL/6.J. Fmr1-K02 mice, which have a deletion of the promoter and exonl of the Fmr1 gene (Mientjes et al., 2006) and C57BL/6J wild type (WT) were originated from the Jackson laboratory (Ann Harbor, USA). Mice were housed in groups (4-6 per cage) and all animals were provided with ad libitum food and water unless otherwise stated. Mice were maintained on a 12 h light/12 h dark cycle (lights off 19:00 to 7:00) in a temperature-controlled environment (21±1° C.). Testing was conducted in the light phase. Mice were housed in commercial cages and experiments were performed in line with the United Kingdom Animals (Scientific procedures) Act 1986. […]
# Drug Treatment: VSN16R was dissolved in saline for injection intravenously via a tail vein using 2 mg/kg a 30 g needle in a volume of 0.1 ml. […] The eye condition (runny eyes or porphyria, ptosis), gait appearance, tremor, tail tone, reactivity to handling was assessed to detect adverse behavioural effect.
# Marble burying: Mice will dig as part of their typical behaviours and this was detected using transparent plastic cages were filled with a 10 cm deep layer of sawdust on top of which 10 glass marbles were placed in two rows. Each animal was left undisturbed in such a cage for 30 min, after which the number of marbles that were buried to at least ⅔ of their depth was recorded. […]
# [2] = system: C57BL/6.Fmr1 knockout mice; test: Contextual fear conditioning in Fmr1 knockout mice; format: in vivo, mouse; conditions: Fmr1 knockout mice, 2 mg/kg i.v.
# Protocol: Animals: C57BL/6.J. Fmr1-K02 mice, which have a deletion of the promoter and exonl of the Fmr1 gene (Mientjes et al., 2006) and C57BL/6J wild type (WT) were originated from the Jackson laboratory (Ann Harbor, USA). Mice were housed in groups (4-6 per cage) and all animals were provided with ad libitum food and water unless otherwise stated. Mice were maintained on a 12 h light/12 h dark cycle (lights off 19:00 to 7:00) in a temperature-controlled environment (21±1° C.). Testing was conducted in the light phase. Mice were housed in commercial cages and experiments were performed in line with the United Kingdom Animals (Scientific procedures) Act 1986. All experiments were conducted with experimentors blind to genotype and drug treatment. Each experimental group contained 10 animals.
# Drug Treatment: VSN16R was dissolved in saline for injection intravenously via a tail vein using 2 mg/kg a 30 g needle in a volume of 0.1 ml. Animals were inspected for differences in coat appearance, to detect whether any piloerection was present. The eye condition (runny eyes or porphyria, ptosis), gait appearance, tremor, tail tone, reactivity to handling was assessed to detect adverse behavioural effect.
# Contextual fear conditioning: Animals are trained to expect an electroshock treatment within a defined environment, such that on subsequent presentation of the environment, freezing behaviours are induced. […]
# BK channel = BK channel (Homo sapiens, UniProt Q12791); test: Inside-out patch clamp (single channel) on EA.hy926 cells; format: cell-based; parameters: The human umbilical vein derived endothelial cell line, EA.hy926; endogenous in cells; host or cells: EA.hy926 human endothelial cell line
# Protocol: The human umbilical vein derived endothelial cell line, EA.hy926 (Edgell et al., Proc Natl Acad Sci USA. 1983 June; 80(12): 3734-7) at passage >45 was grown in DMEM containing 10% FCS and 1% HAT (5 mM hypoxanthine, 20 μM aminopterin, 0.8 mM thymidine) and cells were maintained in an incubator at 37° C. in 5% CO2 atmosphere. Cells were plated on either 10 mm (for patch-clamp recordings) or 30 mm glass cover slips (for Ca^2+ measurements).
# Single-channel recordings were obtained from excised inside-out membrane patches in symmetrical solutions. The pipettes were filled with (in mM) 140 KCl, 10 HEPES, 1 MgCl2, 5 EGTA, 4,931 CaCl2 with pH 7.2 by adding KOH (i.e. 10 μM free Ca^2+, G. Droogmans, Leuven, Belgium; ftp://ftp.cc.kuleuven.ac.be/pub/droodmans/cabuf.zip). Cells were perfused with a standard bath solution containing (in mM) 140 NaCl, 5 KCl, 1.2 MgCl2, 10 HEPES, 10 glucose, 2.4 CaCl2. Following gigaseal formation, bath solution was switched to the following (in mM) 140 KCl, 10 HEPES, 1 MgCl2, 5 EGTA and a desired free Ca^2+ concentration which was adjusted by adding different amounts of CaCl2 calculated by the program CaBuf. pH was adjusted to 7.2 by adding KOH. Membrane currents and potential were recorded using a List EPC7 amplifier (List, Germany) and pClamp (version 8.2, Axon Instruments) software.
# rat mesenteric arteries = test: Vasodilation in rat mesenteric arteries (wire myograph)
# Protocol: Rats were stunned by a blow to the back of their neck and killed by cervical dislocation in compliance with schedule 1 of the UK Animals (Scientific Procedures) Act 1986.
# Segments (2 mm in length) were mounted in a Mulvany-Halpern type wire myograph (Model 610M; Danish Myo Technology, Aarhus, Denmark) and maintained at 37° C. in gassed (95% O2/5% CO2) Krebs-Henseleit solution of the following composition (mM): NaCl 118, KCl 4.7, MgSO4 1.2, KH2PO4 1.2, NaHCO, 25, CaCl2 2, D-glucose 10 as previously described (Ho and Randall, 2007). Arteries were equilibrated and set to a basal tension of 2-2.5 mN. The integrity of the endothelium was assessed by precontracting the vessel with 10 μM methoxamine (an α1-adrenoceptor agonist), followed by relaxation with 10 μM carbachol (a muscarinic acetylcholine receptor agonist); vessels showing relaxations of greater than 90% were designated as endothelium-intact. When endothelium was not required, it was removed by rubbing the intima with a human hair; carbachol-induced relaxation of less than 10% indicated successful removal. After the test for endothelial integrity, arteries were left for 30 min and then precontracted with 10 μM methoxamine (or 60 mM KCl), this was followed by construction of a cumulative concentration-relaxation curve to VSN16R (10 nM-1 μM). Most experiments were performed in matched vessels; effects of putative modulators or endothelial removal were compared with the control responses obtained in separate vessels of the same rat. Potential modulators were added to the myograph bath 30 min before measurement, and kept present during, construction of the concentration-relaxation curve.
# BK channel, sequence (Q12791 1-1178 isoform Q12791-5): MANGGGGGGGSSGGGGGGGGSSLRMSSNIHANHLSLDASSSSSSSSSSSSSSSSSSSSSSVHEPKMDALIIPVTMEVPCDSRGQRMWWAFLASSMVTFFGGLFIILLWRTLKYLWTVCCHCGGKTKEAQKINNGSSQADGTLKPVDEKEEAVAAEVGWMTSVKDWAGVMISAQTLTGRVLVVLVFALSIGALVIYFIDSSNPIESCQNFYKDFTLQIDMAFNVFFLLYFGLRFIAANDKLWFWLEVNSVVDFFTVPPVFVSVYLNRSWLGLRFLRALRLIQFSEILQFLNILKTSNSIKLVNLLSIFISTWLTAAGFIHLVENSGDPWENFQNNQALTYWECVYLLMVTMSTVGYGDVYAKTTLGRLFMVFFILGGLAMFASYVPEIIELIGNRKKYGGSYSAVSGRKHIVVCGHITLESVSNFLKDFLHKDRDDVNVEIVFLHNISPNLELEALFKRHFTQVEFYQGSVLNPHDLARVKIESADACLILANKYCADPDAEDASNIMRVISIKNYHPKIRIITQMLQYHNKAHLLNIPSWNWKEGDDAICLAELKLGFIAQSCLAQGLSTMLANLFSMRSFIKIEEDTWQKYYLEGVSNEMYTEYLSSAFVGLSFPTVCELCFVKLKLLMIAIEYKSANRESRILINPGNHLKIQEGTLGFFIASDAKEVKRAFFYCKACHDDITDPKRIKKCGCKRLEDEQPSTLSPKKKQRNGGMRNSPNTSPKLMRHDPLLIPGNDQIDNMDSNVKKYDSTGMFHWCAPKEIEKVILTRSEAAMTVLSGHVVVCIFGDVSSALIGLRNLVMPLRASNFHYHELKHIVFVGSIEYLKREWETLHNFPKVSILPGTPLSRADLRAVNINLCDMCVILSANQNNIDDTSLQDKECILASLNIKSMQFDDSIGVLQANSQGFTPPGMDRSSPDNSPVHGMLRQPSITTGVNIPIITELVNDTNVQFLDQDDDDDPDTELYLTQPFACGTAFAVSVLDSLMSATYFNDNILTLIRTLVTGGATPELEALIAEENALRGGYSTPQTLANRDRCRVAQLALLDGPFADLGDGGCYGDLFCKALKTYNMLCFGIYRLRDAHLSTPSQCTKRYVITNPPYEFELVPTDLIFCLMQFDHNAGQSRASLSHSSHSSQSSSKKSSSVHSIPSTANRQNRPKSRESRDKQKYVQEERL
# BK channel, sequence (Q86W47 whole entry partner): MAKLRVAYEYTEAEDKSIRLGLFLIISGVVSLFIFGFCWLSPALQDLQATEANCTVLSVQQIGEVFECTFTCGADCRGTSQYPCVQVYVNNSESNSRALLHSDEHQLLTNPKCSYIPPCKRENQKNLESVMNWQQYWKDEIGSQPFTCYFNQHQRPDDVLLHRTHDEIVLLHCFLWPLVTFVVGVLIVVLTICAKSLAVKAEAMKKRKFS
structure (smiles),measurement,setting,value
C[C@H](CO)NC(=O)c1cccc(/C=C\CCCC(=O)N(C)C)c1 [VSN16R],digging behaviour (marbles buried),[1],inhibits the development of Exaggerated Digging Behaviours; also recorded: significantly (P<0.001) limited the exaggerated behaviour
same,fear conditioning (freezing),[2],inhibits the development of fear conditioning; also recorded: significantly (P<0.001) limited the exaggerated behaviour
same,open probability of BKca channels,BK channel; EA.hy926 cells,increases the open probability of BKca channels
same,activation of the response of the channel,"BK channel; human EA.hy926 cells, calcium dependent",voltage and calcium dependent; also recorded: activation of the response of the channel
same,relaxation of rat mesenteric arteries in the presence of charybdotoxin,rat mesenteric arteries; 50 nM charybdotoxin,inhibited by antagonists of BKCa channels
same,relaxation of rat mesenteric arteries in the presence of iberotoxin,rat mesenteric arteries; 50 nM iberotoxin,blocked by iberotoxin; also recorded: can be inhibited by the specific BK channel blocker iberiotoxin; also recorded: inhibited by antagonists of BKCa channels
same,activation of calcium activated potassium channels in arterial vasodilation assay,"rat mesenteric arteries; FIG. 9, reduction of endothelial tone",activates calcium activated potassium channels
same,relaxation of rat mesenteric arteries in the presence of apamin alone,rat mesenteric arteries; apamin alone,non-significant blockade
same,relaxation of rat mesenteric arteries in the presence of apamin and charybdotoxin,rat mesenteric arteries; combination of apamin and charybdotoxin,blocked
same,relaxation of rat mesenteric arteries in the presence of 60 mM KCl,rat mesenteric arteries; extracellular 60 mM KCl,inhibiting VSN16R activity; also recorded: produced no relaxation
same,relaxation of rat mesenteric arteries,"rat mesenteric arteries; pre-contracted with methoxamine, endothelium intact vs denuded",relaxed; also recorded: can induce vasorelaxation in an endothelium-dependent (P<0.001) manner
